Assay results reported in patent publication EP1027361B1, “6,11-BRIDGED ERYTHROMYCIN DERIVATIVES” (Abbott Laboratories, priority 1997, dated 1999).

Columns and labels:
Assay in all cases: in vitro antibacterial activity, agar dilution MIC
Assay type in all cases: cell-based
[1] = system: Mycobacterium smegmatis ATCC 114; design: unit not given here; settings: organism code UU, BHI agar, 35-37 °C, 20 to 24 hours
Outline: (§1)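 Organisms are stamped onto BHI agar carrying serial compound dilutions, using 1:100 inocula, or 1:10 for slow-growing strains. Drug-free plates run at the start and end, and a same-class reference antibiotic serves as a further control. The MIC is read by eye as the lowest inhibitory concentration.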

[2] = system: Staphylococcus aureus A5177; design: unit not given here; settings: organism code BB, BHI agar, 35-37 °C, 20 to 24 hours
Outline: as §1

[3] = system: Streptococcus Pheumoniae ATCC6303; design: unit not given here; settings: organism code XX, BHI agar, 35-37 °C, 20 to 24 hours
Procedure: (§2) Erythromycin A was used for this purpose.
(§3) After incubation, each plate was visually inspected.

[4] = system: Streptococcus bovis A-5169; design: unit not given here; settings: organism code JJ, BHI agar, 35-37 °C, 20 to 24 hours
Procedure: as §2, §3

[5] = system: Streptococcus pyogenes EES61; design: unit not given here; settings: organism code LL, BHI agar, 35-37 °C, 20 to 24 hours
Procedure: as §2, §3

[6] = system: Staphylococcus aureus ATCC 6538P; design: unit not given here; settings: organism code AA, BHI agar, 35-37 °C, 20 to 24 hours
Procedure: as §2, §3

[7] = system: Streptococcus agalactiae CMX 508; design: unit not given here; settings: organism code KK, BHI agar, 35-37 °C, 20 to 24 hours
Procedure: as §2, §3

[8] = system: Streptococcus Pheumoniae 5979; settings: organism code ZZ, BHI agar, 35-37 °C, 20 to 24 hours
Outline: as §1

Escherichia coli DC-2 = settings: organism code SS, BHI agar, 35-37 °C, 20 to 24 hours
Outline: as §1

[9] = system: Streptococcus pyogenes PIU 2548; settings: organism code NN, BHI agar, 35-37 °C, 20 to 24 hours
Outline: as §1

[10] = system: Staphylococcus aureus 1775; settings: organism code GG, BHI agar, 35-37 °C, 20 to 24 hours
Outline: as §1

[11] = system: Streptococcus pyogenes 930; settings: organism code MM, BHI agar, 35-37 °C, 20 to 24 hours
Outline: as §1

Candida albicans CCH 442 = settings: organism code TT, BHI agar, 35-37 °C, 20 to 24 hours
Outline: as §1

[12] = system: Staphylococcus aureus A-5278; settings: organism code CC, BHI agar, 35-37 °C, 20 to 24 hours
Outline: as §1

Escherichia coli SS = settings: organism code RR, BHI agar, 35-37 °C, 20 to 24 hours
Procedure: as §2, §3

[13] = system: Haemophilis Influenzae DILL AMP R; settings: organism code WW, BHI agar, 35-37 °C, 20 to 24 hours
Procedure: as §2, §3

[14] = system: Staphylococcus aureus CMX 553; settings: organism code FF, BHI agar, 35-37 °C, 20 to 24 hours
Procedure: as §2, §3

[15] = system: Micrococcus luteus ATCC 9341; settings: organism code OO, BHI agar, 35-37 °C, 20 to 24 hours
Procedure: as §2, §3

[16] = system: Staphylococcus epidermidis 3519; settings: organism code HH, BHI agar, 35-37 °C, 20 to 24 hours
Procedure: as §2, §3

[17] = system: Nocardia Asteroides ATCC9970; settings: organism code VV, BHI agar, 35-37 °C, 20 to 24 hours
Procedure: as §2, §3

[18] = system: Streptococcus Pheumoniae GYR 1171; settings: organism code YY, BHI agar, 35-37 °C, 20 to 24 hours
Procedure: as §2, §3

[19] = system: Staphylococcus aureus CMX 642A; settings: organism code DD, BHI agar, 35-37 °C, 20 to 24 hours
Procedure: as §2, §3

[20] = system: Staphylococcus aureus NCTC10649M; settings: organism code EE, BHI agar, 35-37 °C, 20 to 24 hours
Procedure: as §2, §3

[21] = system: Enterococcus faecium ATCC 8043; settings: organism code II, BHI agar, 35-37 °C, 20 to 24 hours
Procedure: as §2, §3

[22] = system: Streptococcus Pheumoniae 5649; settings: organism code ZZA, BHI agar, 35-37 °C, 20 to 24 hours
Procedure: as §2, §3

[23] = system: Micrococcus luteus ATCC 4698; settings: organism code PP, BHI agar, 35-37 °C, 20 to 24 hours
Procedure: as §2, §3

Escherichia coli JUHL = settings: organism code QQ, BHI agar, 35-37 °C, 20 to 24 hours
Procedure: as §2, §3

Row | SMILES | minimum inhibitory concentration (MIC) [1] | minimum inhibitory concentration (MIC) [2] | minimum inhibitory concentration (MIC) [3] | minimum inhibitory concentration (MIC) [4] | minimum inhibitory concentration (MIC) [5] | minimum inhibitory concentration (MIC) [6] | minimum inhibitory concentration (MIC) [7] | minimum inhibitory concentration (MIC) [8] | minimum inhibitory concentration (MIC) (Escherichia coli DC-2) | minimum inhibitory concentration (MIC) [9] | minimum inhibitory concentration (MIC) [10] | minimum inhibitory concentration (MIC) [11] | minimum inhibitory concentration (MIC) (Candida albicans CCH 442) | minimum inhibitory concentration (MIC) [12] | minimum inhibitory concentration (MIC) (Escherichia coli SS) | minimum inhibitory concentration (MIC) [13] | minimum inhibitory concentration (MIC) [14] | minimum inhibitory concentration (MIC) [15] | minimum inhibitory concentration (MIC) [16] | minimum inhibitory concentration (MIC) [17] | other results
1 | CC[C@H]1OC(=O)[C@H](C)[C@@H](O[C@H]2C[C@@](C)(OC)[C@@H](O)[C@H](C)O2)[C@H](C)[C@@H](O[C@@H]2O[C@H](C)C[C@H](N(C)C)[C@H]2O)[C@@]2(C)C[C@@H](C)C(=O)[C@H](C)[C@H]3N(CCCCO2)C(=O)O[C@]13C [Example 15, Compound of Formula (I), R^p is H, m is 3, A is absent, B is absent, D is absent, E is absent, n is 1] | 1.56 | 3.1 | 0.03 | 0.05 | 0.1 | 0.39 | 0.05 | >128 | >100 | 6.2 | >100 | >100 | >100 | >100 | 3.1 | 32 | 0.39 | 0.05 | 0.39 | 0.1 | minimum inhibitory concentration (MIC) [18]: 0.03; minimum inhibitory concentration (MIC) [19]: 0.39; minimum inhibitory concentration (MIC) [20]: 0.78; minimum inhibitory concentration (MIC) [21]: 0.1; minimum inhibitory concentration (MIC) [22]: 16; minimum inhibitory concentration (MIC) [23]: 0.39; minimum inhibitory concentration (MIC) (Escherichia coli JUHL): >100
2 | CC[C@H]1OC(=O)[C@H](C)[C@@H](O[C@H]2C[C@@](C)(OC)[C@@H](OC(C)=O)[C@H](C)O2)[C@H](C)[C@@H](O[C@@H]2O[C@H](C)C[C@H](N(C)C)[C@H]2O)[C@@]2(C)C[C@@H](C)C(=O)[C@H](C)[C@H]3N(CCNCc4cccc(c4)C=CCO2)C(=O)O[C@]13C [Example 10, Compound of Formula (I), 2'-R^p is H, 4"-R^p is acetyl, m is 2, A is NH, B is-(CH2)q-, q is 1, D is 1,3-phenylene, E is-(CH2)r-CH=CH-, r is 0, n is 1] | 0.39 | 25 | 0.12 | 0.39 | 0.78 | 6.2 | 0.39 | 64 | >100 | 6.2 | 100 | 25 | >100 | 100 | 6.2 | 64 | 6.2 | 0.39 | 6.2 | 1.56 | minimum inhibitory concentration (MIC) [18]: 0.25; minimum inhibitory concentration (MIC) [19]: 6.2; minimum inhibitory concentration (MIC) [20]: 6.2; minimum inhibitory concentration (MIC) [21]: 0.78; minimum inhibitory concentration (MIC) [22]: 8; minimum inhibitory concentration (MIC) [23]: 1.56; minimum inhibitory concentration (MIC) (Escherichia coli JUHL): >100
